Source: patent publication US6420348B1, “Pectic polysaccharides purified from Angelica gigas nakai and purification method and use as immunostimulating agent thereof” (Korea Institute of Science and Technology, priority 1997, dated 2002)

What was measured:
[1] = system: T cell-depleted cell group (B cells); experiment: mitogenicity comparison, 3H-thymidine incorporation; assay type: cell-based, mice; settings: for Proliferation B cells: 5 μg/ml; for mitogenicity (in words): B cell-enriched group
Source text: (§1) In this example, the action mode of angelan was compared with those of other lymphocyte mitogens in three different lymphocyte groups. Lipopolysaccharide (LPS) was employed to induce the proliferation of B cell while phytohemagglutinin (PHA) and concanavalin A (Con A) were used as T cell mitogens. As a comitogen, that is, in order to induce both T-cells and B-cells to proliferate, pokeweed mitogen (PWM) was used.
(§2) Angelan was given to three different cell groups: total cell group including T- and B-cells, T cell-depleted cell group, and B cell-depleted cell group. Each cell groups were treated with angelan or one of LPS, PWM, Con A and PHA. After incubation, lymphocyte proliferation was measured by the incorporation of 3H-thymidine into the cellular DNA.

[2] = system: B cell-depleted cell group (T cells); experiment: as above; assay type: cell-based, mice; settings: 5 μg/ml
Source text: as §1, §2

[3] = system: total cell group including T- and B-cells; experiment: as above; assay type: cell-based, mice; settings: 5 μg/ml
Source text: as §1, §2

[4] = system: B16F10 melanoma; experiment: host resistance model to syngeneic tumors; assay type: in vivo, BDF1 mice; settings: for Viability: relative to non-treated mice; for Survival Animals (10 in total): survived 60 days
Experimental: The host resistance model to syngeneic tumors was prepared by the intraperitoneal transplantation of B16F10 melanoma to BDF1 mice. After transplantation, angelan was administered at a dose of 100 mg/kg/day while adriamicin was administered at a dose of 0.1 to 0.3 mg/kg. The survival rates of the treated mice was based on the viability of non-treated mice, and the number of the animals which survived for 60 days after the implantation, was counted.

[5] = system: B16F10 cancer cells; experiment: direct cytotoxicity on cancer cells; assay type: cell-based; settings: for survival number of treated cells as ratio to non-treated cells: 2 days
Experimental: Whether the anticancer effect of angelan came from specific mediation by cytotoxic T cells or from nonspecific mediation by macrophages and natural killer cells, was proven as follows. B16F10 cancer cells were treated with angelan and adriamicin at a dose of 0.3 to 30 μg/ml. After incubation for 2 days, the number of the survived cells was countered. The survival number of the treated cells was expressed as a ratio compared with the number of the non-treated cells.

With phytohemagglutinin [PHA] the “Proliferation B cells” value [1] was 446 cpm/200,000 cells, the “Proliferation T cells” value [2] was 3127 cpm/200,000 cells and the “Proliferation B/T cells” value [3] was 1049 cpm/200,000 cells.
With `COc1cccc2c1C(=O)c1c(O)c3c(c(O)c1C2=O)C[C@@](O)(C(=O)CO)C[C@@H]3O[C@H]1C[C@H](N)[C@H](O)[C@H](C)O1` [Adriamicin] the Viability ([4]; adriamicin 0.1 mg/kg) was 195%, the “Survival Animals (10 in total)” value ([4]; adriamicin 0.1 mg/kg) was 0 and the Viability ([4]; adriamicin 0.3 mg/kg) was >240%. For the same compound, the “Survival Animals (10 in total)” value ([4]; adriamicin 0.3 mg/kg) was 2, the “cytotoxicity on cancer cells (in words)” value [5] was “showed cytotoxicity on cancer cells” and the “survival number of treated cells as ratio to non-treated cells” value ([5]; 0.3 μg/ml) was 56. For the same compound, the “survival number of treated cells as ratio to non-treated cells” value ([5]; 1 μg/ml) was 29, the “survival number of treated cells as ratio to non-treated cells” value ([5]; 3 μg/ml) was 9 and the “survival number of treated cells as ratio to non-treated cells” value ([5]; 10 μg/ml) was 0. For the same compound, the “survival number of treated cells as ratio to non-treated cells” value ([5]; 30 μg/ml) was 0.
For Lipopolysaccharide [LPS], the “Proliferation B cells” value [1] was 11550 cpm/200,000 cells, the “mitogenicity (in words)” value [1] was “had an effect” and the “Proliferation T cells” value [2] was 869 cpm/200,000 cells. For the same compound, the “Proliferation B/T cells” value [3] was 11665 cpm/200,000 cells.
For pokeweed mitogen [PWM], the “Proliferation B cells” value [1] was 358 cpm/200,000 cells, the “mitogenicity (in words)” value [1] was “had an effect” and the “Proliferation T cells” value [2] was 12171 cpm/200,000 cells. The “Proliferation B/T cells” value [3] was 10212 cpm/200,000 cells.
With concanavalin A [Con A] the “Proliferation B cells” value [1] was 6566 cpm/200,000 cells, the “Proliferation T cells” value [2] was 3929 cpm/200,000 cells and the “Proliferation B/T cells” value [3] was 6014 cpm/200,000 cells.
